Literature values as cited in US8895061B2, “Compositions comprising carisoprodol and methods of use thereof” (Meda Pharmaceuticals Inc., priority 2007, dated 2014).

What was measured:
[1] = for influence of polymorphic debrisoquine hydroxylation on elimination: poor metabolizers of debrisoquine, single oral doses
[2] = in vivo

| SMILES | influence of polymorphic debrisoquine hydroxylation on elimination [1] | mean serum clearance of meprobamate ([1]; poor metabolizers of mephenyloin compared with extensive metabolizers, single oral dose 400 mg meprobamate) | mean serum clearance of carisoprodol ([1]; poor metabolizers of mephenyloin compared with extensive metabolizers, single oral dose 700 mg carisoprodol) | onset of action [2] |
| --- | --- | --- | --- | --- |
| CCCC(C)(COC(N)=O)COC(N)=O [meprobamate] | did not influence the elimination | did not differ between the two groups |  |  |
| CCCC(C)(COC(N)=O)COC(=O)NC(C)C (centres unmarked) [carisoprodol, N-isopropyl-2-methyl-2-propyl-1,3-propanediol dicarbamate] | did not influence the elimination |  | four times lower | rapid |
